In patent US20210230101A1, “COMPOUNDS FOR TREATING DENGUE VIRUS INFECTIONS AND OTHER INFECTIONS” (Dana-Farber Cancer Institute, Inc., priority 2018, published 2021):
Read-outs that look alike come from different tables or passages of the source.

What was measured:
DENV [1] = experiment: Antiviral activity: viral infectivity assay (single-cycle viral yield); type: cell-based; conditions: Dengue virus; concentration that reduces single-cycle viral yield by 10-fold
Procedure: The term “IC90” refers to the concentration of an antiviral agent that reduces single-cycle viral yield by 10-fold.
For the viral infectivity assay, virus inocula were diluted in EBSS to achieve a multiplicity of infection (MOI) of 1, and were pre-incubated with the given small molecule at varying concentrations for 45 min at 37° C. The mixture was then added to cells for 1 hour at 37° C. to allow infection, after which the inoculum was removed and the cells were washed with 1×PBS to remove unbound virus and compound. Cells were overlaid with medium lacking inhibitor and incubated at 37° C. for 20-24 hours, corresponding to a single cycle of infection. Culture supernatants were harvested at this time, and the yield of infectious particles produced was quantified by plaque-forming assay. For initial antiviral screening of HTS “hits,” compounds were tested for activity at 3 and 10 μM. For IC90 value determination, viral yield (plaque-forming units per milliliter) was plotted versus the log of the inhibitor concentration, and non-linear regression analysis of the data (Graphpad Prism) was performed to determine the concentration at which viral yield is reduced 10-fold.

His6-tagged DENV2 sE2 = His6-tagged DENV2 sE2 (Dengue virus type 2, UniProt P14340); experiment: AlphaScreen competition assay (GNF2-biotin probe vs. envelope protein); type: binding, Dengue virus 2 (DENV2)
Excerpt: Known DENV inhibitors to develop an AlphaScreen assay designed to identify compounds that compete for binding on envelop protein. The AlphaScreen is a bead-based proximity assay that permits measurement of biomolecular interactions of pico- to milli-molar affinities in microplate format. Following excitation of donor beads, energy is transferred to acceptor beads if analytes conjugated to donor and acceptor beads interact. […] We performed cross-titration experiments to optimize the molar concentrations of the probe (GNF2-biotin) and envelope glycoprotein for the assay. We also tested different orders of the addition of the assay components to achieve the best signal-to-noise ratio.

AmpC β-lactamase = molecular target: T1, AmpC β-lactamase (Escherichia coli, UniProt P00811); experiment: AmpC beta-lactamase non-specific enzyme inhibition assay; type: biochemical; conditions: IC50/μM vs. AmpC
T1 construct: Shoichet lab (UCSF), gift
Procedure: AmpC beta-lactamase assay. The AmpC β-lactamase was a kind gift from the Shoichet lab (UCSF). The inhibitor was serially diluted (two-fold dilution series from 100 μM) and pre-incubated with 10 nM enzyme in working buffer (50 mM potassium phosphate, pH 7.0) at room temperature for 5 min. Nitrocefin (100 μM, VWR) was added to the solution and carefully mixed. Absorbance of the final mixture was immediately monitored at 470 nm for 3 min.
For both AmpC and MDH assays, the final concentration of DMSO was 2% for all samples. All assays were repeated in the presence of 0.01% Triton X-100. IC50 values of 3-110-22 presented in Table 2 are representative data from two independent experiments; values for the other lead compounds were measured once for each enzymatic assay.

[2] = Cytotoxicity (CellTiter-Glo); type: cell-based; conditions: hamster, BHK21 cells, read-out: CC50/μM (toxicity)
Procedure: The term “CC50” refers to the concentration of an antiviral agent that causes 50% loss of cell viability.
BHK21 cells (MEM with 2% FBS) were incubated with varying concentrations of inhibitor in a 96-well white plate for 24 hours at 37 degrees C. and 5% CO2. CellTiter-Glo (Promega) solution was used to measure viability following the manufacturer's instructions. Luminescence was measured using a Biotek Synergy plate reader. Data were plotted versus the log10 inhibitor concentration, and non-linear regression analysis (Graphpad Prism) was used to determine CC50 values, defined as the inhibitor concentration required to cause 50% loss of cell viability. The maximum concentration tested was 100 μM. Values presented in Table 1 are the average of two or more independent experiments.

DENV [3] = experiment: PRNT plaque reduction assay; type: cell-based; conditions: Dengue virus; plaque reduction by 50%; virus not given
Procedure: For plaque reduction assays, DENV1, 2, 3, 4 were tested on BHK-21 cells, and ZIKV was tested on Vero cells. Vims inocula were diluted in EBSS to 2500 pfu/ml as the final concentration, and were pre-incubated with different concentrations of small molecule inhibitors (2% DMSO vol/vol final concentration) for 45 min at 37° C., 5% CO2. The mixture (200 μl, 500 pfu of virus) was then added to cells for 1 hour (37° C., 5% CO2) to allow infection, after which the inoculum was removed, and the cells were washed with 1×PBS to remove unbound virus and compound. Cells were overlaid with carboxylmethylcellulose and incubated at 37° C., 5% CO2 to allow the formation of plaques (4 days for DENV1, 2, 3, 4 and 2-3 days for ZIKV). The cells were fixed and plaques visualized by staining of the cell monolayers with crystal violet. Empirical analysis was performed to determine the PRNT50 value, defined as the inhibitor concentration needed to reduce plaque formation by 50%.

[4] = Pharmacokinetic (PK) studies; conditions: mouse, in vivo
Procedure: FIG. 3. Pharmacokinetic (PK) data for S4105. The compound has a volume of distribution of 0.06 L/kg, which is essentially the blood volume of a mouse, implying that the compound may be sequestered in the plasma. […] The intraperitoneal (IP) dose was well absorbed. 8 hours after the IP dose of 20 mg/kg the plasma concentration for the three mice ranged from 75-200 μM. Even if the compound is 99.95% plasma protein bound, this would still give a free fraction of about 50 nM.
FIG. 4. PK data for ZNL-01-132. The compound has a long half-life in plasma of 5-6 hours. After IP dosing at 20 mg/kg high concentrations were achieved and 8 hours post dose the levels were approximately 2 μM.
PK studies were performed on compounds S4105 and ZNL-01-132.

VSV-eGFP = VSV-eGFP counter screen; type: cell-based
[5] = TX, in the presence of 0.01% Triton X-100

T1 sequence (P00811 20-377): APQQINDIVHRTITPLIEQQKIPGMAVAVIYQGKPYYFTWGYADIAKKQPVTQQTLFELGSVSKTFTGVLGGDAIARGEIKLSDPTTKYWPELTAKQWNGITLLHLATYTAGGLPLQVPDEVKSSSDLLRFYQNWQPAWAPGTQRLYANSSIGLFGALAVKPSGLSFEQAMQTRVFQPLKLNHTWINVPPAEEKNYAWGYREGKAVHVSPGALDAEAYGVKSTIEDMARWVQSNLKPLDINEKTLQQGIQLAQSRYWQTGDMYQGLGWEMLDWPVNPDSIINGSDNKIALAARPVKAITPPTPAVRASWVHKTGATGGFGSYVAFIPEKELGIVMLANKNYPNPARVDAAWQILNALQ

| Compound | IC90 (DENV [1]) [nM] | IC50 (His6-tagged DENV2 sE2) [nM] | IC50 (AmpC β-lactamase; No TX, without Triton X-100) [µM] | IC50 (AmpC β-lactamase; [5]) [µM] | CC50 at 24 h [2] [µM] | EC50 (DENV [3]) [µM] | other results |
| --- | --- | --- | --- | --- | --- | --- | --- |
| Cc1cc(C(C#N)c2ccc(Cl)cc2)c(Cl)cc1NC(=O)c1cc(I)cc(I)c1O (stereo not drawn) [drawing 87] | 1000 | 800 |  |  |  |  |  |
| Cc1cc(C(C#N)c2ccc(Cl)cc2)c(Cl)cc1NC(=O)c1ccccc1O (stereo not drawn) | 8000 | 2000 |  |  |  |  |  |
| O=C(Nc1ccc(Oc2ccc(Cl)cc2)c(Cl)c1)c1cc(I)cc(I)c1O |  | 800 |  |  |  |  |  |
| Cc1cc(C(C#N)c2ccc(Cl)cc2)c(Cl)cc1NC(=O)c1cc(I)cc(I)c1O (stereo not drawn) [S4105] |  |  | 0.3 | > 100 | ~50 | 0.3 | Vd [4]: 0.06 L/kg; absorption of intraperitoneal (IP) dose ([4]; ip): well absorbed; concentration at 8 h ([4]; ip, 20 mg/kg): 75 to 200 µM; clearance ([4]; iv): 2.4 mL/h/kg; half-life ([4]; iv): 21 h |
| NC(=O)c1cccc(-c2cc(Nc3ccc(OC(F)(F)F)cc3)ncn2)c1 [GNF2, reference compound] |  |  |  |  |  |  | competition of AlphaScreen signal (His6-tagged DENV2 sE2; GNF2-biotin on donor beads, His6-tagged DENV2 sE2 on acceptor beads): competed away in a dose-dependent fashion |
| O=C(Nc1ccc(Oc2ccc(Cl)cc2)c(Cl)c1)c1cc(F)cc(F)c1O [ZNL-01-132] |  | 4000 | 38 | > 100 | 44 | 0.5 | % Inhibition Vs. VSV-eGFP, 2.5 μM (VSV-eGFP; 2.5 μM): 80%; % Inhibition Vs. VSV-eGFP, 5 μM (VSV-eGFP; 5 μM): >90%; half-life [4]: 5 to 6 h; concentration at 8 h ([4]; IP 20 mg/kg, 8 hours post dose, read-out: plasma concentration 8 hours after IP dose): ~2 µM |
